The source of these data is patent US20210238173A1, “MITOGEN-ACTIVATED PROTEIN KINASE KINASE 7 INHIBITORS” (Yeda Research and Development Co. Ltd., priority 2018, published 2021).

pEC50, pIC50: −log10 of the molar value. Where “and” joins values, the source holds several entries; their conditions need not be identical. Equal entries are not always repeated. Some results are limits rather than exact numbers.

The target of one data set is T1, MKK7 (Homo sapiens, UniProt O14733).
T1 construct: purchased Nanosyn (contract assay)
T1 sequence (O14733 1-419): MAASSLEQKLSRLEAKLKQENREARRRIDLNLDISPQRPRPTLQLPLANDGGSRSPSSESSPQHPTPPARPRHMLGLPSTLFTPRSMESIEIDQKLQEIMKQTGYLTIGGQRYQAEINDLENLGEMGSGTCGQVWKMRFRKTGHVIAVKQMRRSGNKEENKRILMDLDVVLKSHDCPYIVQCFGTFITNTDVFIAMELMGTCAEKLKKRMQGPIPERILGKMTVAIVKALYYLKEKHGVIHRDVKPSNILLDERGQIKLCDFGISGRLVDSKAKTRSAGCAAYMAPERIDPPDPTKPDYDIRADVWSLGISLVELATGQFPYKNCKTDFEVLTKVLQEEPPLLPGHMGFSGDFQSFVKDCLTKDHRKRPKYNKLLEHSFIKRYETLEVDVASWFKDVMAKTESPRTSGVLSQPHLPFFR
Nature of the data set: In vitro kinase activity assay for MKK7 (Nanosyn). To be noted: read-out: MKK7 IC50 in vitro. The data set is classed as biochemical. On the procedure: Based on visual inspection of the top 500 predictions, 10 compounds were selected for synthesis and testing (see, Table 1). The “Docking rank” is given in its respective run, whereas four virtual libraries of acrylamides were docked separately, based on the amine precursor for the acrylamide (primary or secondary aliphatic amines, primary or secondary aromatic amines). In vitro kinase activity assay was carried out by Nanosyn, as described below.
In Vitro Activity Assays for MKK7 or MKK4 (Carried by Nanosyn):
Exemplary test compounds, according to some embodiments of the present invention, were diluted in DMSO to a final concentration that ranged from 10 μM to 0.0565 nM, while final concentration of DMSO in all assays was kept at 1%. Reference compound, Staurosporine, was tested in a similar manner. […] After incubation, activity of now activated JNK1 was tested in the presence of 30 μM ATP ATP for 17 h (MKK7) or 4 h (MKK4).

The subject of another data set is pJNK in HEK293 cells. As to the kind of experiment: In-cell western (ICW) pJNK inhibition in HEK293. The data set is classed as cell-based. The settings on record: Homo sapiens, HEK293, HEK293, ICW, 2 h pre-incubation, sorbitol stimulation. On the procedure:
HEK293, Beas2B and 3T3 cells were plated 24 hours before procedure on 384 well clear bottom black flat plates (Corning) pre-coated with Fibronectin (Sigma) diluted in PBS to a concentration of 5 μg/ml 45 minutes prior to cells introduction. Cells were plated using Multidrop™ Combi reagent dispenser (Thermo Fisher Scientific). Compound, reagents and antibody dispensing as well as washes were performed with a CyBio liquid handler (Analytik). Cells were pre-incubated with a small molecule or up to 1% DMSO for 2 h before fixation. HEK293, 3T3 or Beas2B cells were treated with 0.6M/0.2M/0.2M D-Sorbitol/PBS (Sigma) for 20/40/40 min. respectively, before fixation. Media was removed and wells were immediately fixed with 150 μl per well of 3.7% formaldehyde/PBS fixing solution for 20 min. Formaldehyde was then aspired and cells were permeabilized with 150 μl of 0.5% Triton x-100/PBS solution for 10 min. After aspiration cells were washed with ice-cold methanol and stored at −20° C., for 10 min. Methanol was aspired and cells were blocked with 150 μl blocking buffer (LICOR) for 90 min. Primary antibody Phospho-SAPK/JNK T183/Y185 (CST; 9251S) was diluted 1:1000 in blocking buffer and was applied 50 μl per well, except control wells to which only blocking buffer was applied, O.N. (16 h) at 4° C. with mild shaking. Primary antibody was aspired, wells were washed with 150 μl 0.1% Tween20/PBS (Sigma) washing solution three times for 7 min. IRDye® 800CW Goat anti-Rabbit IgG Secondary antibody (LICOR) was then diluted 1:1200 in blocking buffer with 50 μl applied per well on control wells only (no CellTag control), then CellTag700 (1:2000) was added to the solution and 50 μl were added to all experiment wells, for 1 h at room temperature. Wells were aspired and washed again with 150 μl 0.1% Tween20/PBS (Sigma) washing solution three times for 7 min. plate was dried and scanned with Odyssey CLx imaging system at 700 nm and 800 nm (Licor). Wells signals were analyzed with Odyssey software. The signal was normalized by the CellTag700 signal.
To rapidly assess the cellular activity (EC50) with full dose response curves of the MKK7 covalent inhibitors, according to some embodiments of the present invention, an in-cell western assay was adapted to a 384 well plate format over traditional western blot, and monitored phospho-JNK (pJNK) levels in response to osmotic shock. We first characterized the dynamics of pJNK in response to sorbitol. Sufficient dynamic range for pJNK is achieved at 20 minutes in HEK293 cells and at 40 minutes in 3T3 and Beas2B cells. The compound's activity was assessed by pre-treating cells with either compound or DMSO for 2 hours, followed by Sorbitol stimulation. The response of pJNK, and its substrates, pc-Jun and pATF2, was measured, as well as pP38, which is a substrate of MKK4 but not MKK7, and pERK in HEK293 cells, and the results are presented in Table 5 below.

Data set [1] is described as follows: Metabolic stability in mouse liver microsomes. The settings on record: for half-life: mouse, liver microsomes. The data set is classed as in vitro ADME. The source says: (§1) A reference compound, REF1250, was used in this study: […]
On the technique in general: Liver microsomes are vesicles of endoplasmic reticulum, rich in cytochrome P450 enzymes.

Data set [2] is described as follows: Metabolic stability in human liver microsomes. The data set is classed as in vitro ADME. The settings on record: for half-life: human, liver microsomes.
Description: as §1

The nature of data set [3]: Metabolic stability in rat liver microsomes. To be noted: for half-life: rat, liver microsomes. The data set is classed as in vitro ADME.
Description: as §1

Data set [4] is described as follows: Metabolic stability in monkey liver microsomes. Type of data set: in vitro ADME.
Description: as §1

A short description of data set [5]: Metabolic stability in dog liver microsomes. Type of data set: in vitro ADME. To be noted: for half-life: dog, liver microsomes.
Description: as §1

As a reminder, the pIC50 is the IC50 on a negative log10 scale, so that one unit is a factor of ten. With `C=CC(=O)Nc1cccc2[nH]ncc12` [GO1], the pIC50 at MKK7 is below 5.00.
On the same count and under the same terms, for `C=CC(=O)NC1CCC(c2nc(-c3ccccc3)n[nH]2)CC1` (stereo not shown) [GO2] the value was below 5.00; for `C=CC(=O)Nc1ccc(N2CCNC2=O)cc1` [GO5], 6.30; for `C=CC(=O)N1CCC(c2c[nH]c3ncccc23)CC1` [GO6], below 5.00.
`C=CC(=O)Nc1ccc2c(c1)C(=O)NC2` [GO7]: the pIC50 at MKK7 is 6.06.
Same read-out and setting: in the case of `C=CC(=O)NCC1CCCN(c2cc(NC)ncn2)C1` (stereo not shown) [GO8] it was below 5.00; in that of `C=CC(=O)NCC1CCCN1c1cc(NC)ncn1` (stereo not shown) [GO9], below 5.00.
Regarding `C=CC(=O)N1CCN(CC2=NC(C)N=N2)CC1` (stereo not shown) [GO10], the pIC50 on MKK7 was below 5.00.
On the same count and under the same terms, in the case of `C=CC(=O)N1CCOC(c2nc(CCC)n[nH]2)C1` (stereo not shown) [GO14] it was below 5.00.
As usually defined, the pEC50 is the EC50 on a negative log10 scale, so that one unit is a factor of ten. As for `C=CC(=O)Nc1cccc(-c2n[nH]c3c([N+](=O)[O-])cccc23)c1` [GO29], on MKK7, the pIC50 is 7.57. In the data set with pJNK in HEK293 cells, this molecule showed a pEC50 below 5.00.
As for `C=CC(=O)Nc1cccc(-c2n[nH]c3c2CCC3)c1` [GO49], the pIC50 at MKK7 is 7.14.
Usually half-life stands for how long it takes for the measured level to halve. On to `C=CC(=O)Nc1cccc(-c2n[nH]c3c2CC(C)(C)CC3)c1` [GO54], for which the “% remaining @ 40 min” value in data set [1] was 18%; in data set [2] it was 20%; in data set [3] it was 4%; in data set [4], 1%; in data set [5] it was 1%. Further, the half-life in data set [1] amounted to 11 min; in data set [2], 16 min; in data set [3], 8 min; in data set [4], 5 min; in data set [5], 6 min. Besides, at MKK7, the pIC50 is 8.00. The pEC50 in the data set on pJNK in HEK293 cells was 5.48.
For the molecule `C=CC(=O)Nc1cccc(-c2n[nH]c3c2COCC3)c1` [GO55], the “% remaining @ 40 min” value in data set [1] was found to be 4%; in data set [2], 13%; in data set [3], 40%; in data set [4], 0%; in data set [5] it was 6%. For the same molecule, the half-life is 8 min in data set [1]; 13 min in data set [2]; 29 min in data set [3]; below 5 min in data set [4]; 9 min in data set [5]. Besides, the pIC50 on MKK7 was 7.19. Besides, in the data set on pJNK in HEK293 cells, the pEC50 was below 5.00.
Regarding `C=CC(=O)Nc1cccc(-c2n[nH]c3c2CN(C(=O)OC(C)(C)C)CC3)c1` [GO61], the pIC50 on MKK7 is 6.71. The pEC50 in the data set on pJNK in HEK293 cells was below 5.00.
The corresponding values for `C=CC(=O)Nc1cccc(-c2n[nH]c3c2CNCC3)c1` [GO64] are 5.61 and below 5.00.
As for `C#CCCCC(=O)N1CCc2[nH]nc(-c3cccc(NC(=O)C=C)c3)c2C1` [GO65], the pIC50 on MKK7 is 7.52.
`C=CC(=O)Nc1cc(-c2n[nH]c3ccccc23)ccc1C` [GO72]: the “% remaining @ 40 min” value came to 0% in data set [1]; 11% in data set [2]; 0% in data set [3]; 0% in data set [4]; 0% in data set [5]. Moreover, the half-life was below 5 min in data set [1]; 12 min in data set [2]; below 5 min in data set [3]; below 5 min in data set [4]; below 5 min in data set [5]. The pIC50 on MKK7 was 7.59. This molecule also had a pEC50 in the data set on pJNK in HEK293 cells of 5.38.
In the case of `C=CC(=O)Nc1cc(C#N)cc(-c2n[nH]c3ccccc23)c1` [GO73], the “% remaining @ 40 min” value in data set [1], in data set [2], in data set [3], in data set [4] and in data set [5] was 0% throughout. The half-life in data set [1], in data set [2], in data set [3], in data set [4] and in data set [5] was below 5 min each time. In addition, on MKK7, the pIC50 was 8.40.
For the molecule `CN(C)C/C=C/C(=O)Nc1cccc(-c2n[nH]c3ccccc23)c1` [GO74], the pIC50 at MKK7 is 6.57.
With `C=CC(=O)Nc1cccc(-c2n[nH]c3c(C)cccc23)c1` [GO81], the pIC50 at MKK7 is 6.09.
Turning to `C=CC(=O)Nc1cccc(-c2n[nH]c3cc(OC)ccc23)c1` [GO83], the “% remaining @ 40 min” value stood at 0% in data set [1]; 1% in data set [2]; 48% in data set [3]; 0% in data set [4]; 0% in data set [5]. The half-life was 5 min in data set [1], below 5 min in data set [2], 35 min in data set [3] and below 5 min in data set [5]. Besides, the pIC50 on MKK7 is 7.96.
For the molecule `C=CC(=O)Nc1cccc(-c2n[nH]c3c(F)cccc23)c1` [GO88], the “% remaining @ 40 min” value came out at 0% in data set [1]; 0% in data set [2]; 2% in data set [3]; 0% in data set [4]; 0% in data set [5]. The half-life was below 5 min in data set [1]; below 5 min in data set [2]; 7 min in data set [3]; below 5 min in data set [4]; below 5 min in data set [5]. Further, the pIC50 on MKK7 is 8.40. In the data set on pJNK in HEK293 cells, the pEC50 was 5.74.
As to `C=CC(=O)Nc1cccc(-c2n[nH]c3c(Cl)cccc23)c1` [GO89], the “% remaining @ 40 min” value in data set [1] stood at 0%; in data set [2] it was 3%; in data set [3] it was 1%; in data set [4], 0%; in data set [5] it was 0%. For the same molecule, the half-life was below 5 min in data set [1], 8 min in data set [2], 6 min in data set [3] and below 5 min in data set [4]. Further, at MKK7, the pIC50 is 7.33.
With `C=CC(=O)Nc1cccc(-c2n[nH]c3cc(-c4ccccc4)ccc23)c1` [GO101], the pIC50 on MKK7 is 7.96. In the data set on pJNK in HEK293 cells, this molecule gave a pEC50 of 6.00.
For the molecule `COc1cc(OC)cc(C(C#N)(CCCN(C)CCc2ccc(OC)c(OC)c2)C(C)C)c1` (stereo not shown) [REF1250, reference compound], the “% remaining @ 40 min” value in data set [1] is 2% and 1%; in data set [2], 5% and 3%; in data set [3] it was 3% and 1%; in data set [4], 0%; in data set [5], 12% and 5%. For the same molecule, the Halflife in data set [1] and in data set [3] was 6 min throughout. The half-life is 7 min in data set [1]; 9 min in data set [2]; 8 min in data set [3]; below 5 min in data set [4]; 12 min in data set [5].
